Results reported in PMC13114161 (Antibiotics, 2026).
Like-named read-outs stand apart in the source and are kept apart here.

Tests used:
P. aeruginosa [1] = test system: P. aeruginosa; set-up: method as in PMID 35052908, PMID 35740123; conditions: against P. aeruginosa; cited from earlier work
[2] = Initial nephrotoxicity screen (BUN, creatinine); format: in vivo, Sprague Dawley rats; conditions: male rats, 10 mg/kg IV QD, 24 h after dosing
Description: BUN and CRE analyses were conducted by SRI International (Menlo Park, CA, USA). Adult male Sprague Dawley rats (n = 3 per group) received TXA11114 (10 mg/kg, IV, QD), and blood samples were collected 24 h after dosing.

Microsomal stability = format: in vitro ADME; conditions: rat, liver microsomes, pH 7.4; read-out: Microsome Stability t1/2
Description: The metabolic stability of TXA11114 was evaluated in liver microsomes from human (HLM), dog (DLM), rat (RLM), and mouse (MLM). Test compound disappearance over time was monitored by LC-MS/MS. Verapamil (HLM and RLM) and imipramine (DLM and MLM) were used as positive controls. […] Aliquots (70 µL) were transferred to 96-well reaction plates and pre-incubated at 37 °C for 5 min. Reactions were initiated by adding 30 µL NADPH (final concentration 1 mM). Control incubations lacking NADPH were included to assess non-enzymatic degradation. Reactions were terminated at 0, 5, 15, 30, and 60 min by the addition of 100 µL ice-cold acetonitrile containing glipizide as an internal standard.

P. aeruginosa ATCC 27853 [3] = experiment: Nitrocefin assay for outer-membrane permeabilization; format: cell-based, Pseudomonas aeruginosa
Description: The significant toxicity of previously identified EPIs has prevented their clinical use. So, understanding the TXA11114 mechanism of action (MoA) was of paramount importance to eliminate off-target effects that may arise from other activities besides efflux pump inhibition. Historically EPIs are known to augment the action of traditional antibiotics by compromising the integrity of bacterial membranes, allowing increased drug accumulation. One of the major concerns of earlier EPIs was their ability to disrupt bacterial membranes. Two approaches were taken to investigate if membrane disruption played a role in the potentiation of antibiotics seen in Table 2 by TXA11114: (1) a flow cytometry-based propidium iodide (PI) assay to monitor inner-membrane permeabilization, and (2) a nitrocefin (NCF) assay to monitor outer-membrane permeabilization. NCF is a chromogenic cephalosporin that changes from yellow to red when the amide bond in the β-lactam ring is hydrolyzed by a β-lactamase. The rate of hydrolysis in intact cells is slow, as it is limited by the rate of diffusion of […]. […] Cells with intact membranes exclude PI and remain non-fluorescent, while cells with compromised membrane integrity allow PI to enter and bind to DNA, resulting in fluorescence. […]

in vitro = format: cell-based; conditions: human
Description: The cytotoxicity of TXA11114 was evaluated in HEK293T and A549 cell lines using the CellTiter-Glo™ assay (Promega, Madison, WI, USA). HEK293T cells (human embryonic kidney cells transformed with sheared adenovirus 5 DNA and expressing SV40 large T antigen) and A549 cells (human alveolar basal epithelial adenocarcinoma cell line; hypotriploid with a modal chromosome number of 66) were obtained from Sai Life Sciences Ltd. (Hyderabad, India). These cell lines are well-characterized and consistent with commonly used reference lines (e.g., A549, ATCC CCL-185).
TXA11114 was tested in a dose–response format with a top concentration of 20 µM using 2-fold serial dilutions in triplicate. Doxorubicin and staurosporine were included as reference controls. Cells (1200 cells/well in 27 µL complete medium) were seeded into 384-well plates and incubated overnight at 37 °C with 5% CO2. The following day, cells were treated with 3 µL of 10× serially diluted compounds. After a 24 h incubation, CellTiter-Glo reagent was added, and plates were gently shaken for 15–20 min at room temperature. Luminescence was measured using an EnVision multimode plate reader (PerkinElmer, Thane, India).

[4] = Plasma protein binding (equilibrium dialysis); format: in vitro ADME
Description: Plasma protein binding was determined experimentally using equilibrium dialysis, with compound concentrations in plasma and buffer quantified by LC-MS/MS.

P. aeruginosa ATCC 27853 [5] = experiment: Ethidium bromide efflux inhibition; format: cell-based, Pseudomonas aeruginosa
Description: In the first assay, the efflux of ethidium bromide (EtBr) by P. aeruginosa cells is studied in the presence of different concentrations of TXA11114.

P. aeruginosa ATCC 27853 [6] = experiment: Intracellular ATP levels; format: cell-based, Pseudomonas aeruginosa; conditions: three hours post-treatment
Description: Further, a deviation from normal membrane function can affect the activity of respiratory components and diminish ATP synthesis. Thus, an indirect approach to assess a drug’s membrane effect is by monitoring cellular ATP levels after treatment. To exclude ATP depletion as a TXA11114 MoA, bacterial ATP levels were evaluated three hours post-treatment. […] Azithromycin was used as a negative control.
P. aeruginosa intracellular ATP levels were determined as described previously using an ATP determination kit (Invitrogen, Life Technologies, Carlsbad, CA, USA). Bacterial culture strain ATCC 27853 was grown to the mid-log phase (OD600 = 0.7), washed, and resuspended in the same volume of PBSM (1X PBS, 1mM MgCl2). […] After treatment, the cells were lysed in chloroform which was subsequently removed by boiling at 80 °C. The persistent ATP from cell lysate was measured in a 96-well black flat-bottom plate by measuring the luminescence. Luminescence was converted to concentration from standard curve. […] Error bars represent the standard deviation of triplicates.

Plasma stability = format: in vitro ADME; conditions: read-out: Plasma stability t1/2
Description: Plasma stability was assessed by incubating the compound in plasma at 37 °C and monitoring parent compound disappearance over time by LC-MS/MS. Half-life values were calculated assuming first-order kinetics.

P. aeruginosa [7] = experiment: MIC potentiation of antimicrobial agents by EPIs; format: cell-based, Pseudomonas aeruginosa; conditions: 1/16 MIC
Description: In contrast, the activities of gentamicin and imipenem were unchanged in the presence of TXA11114 under the conditions tested. Although gentamicin can be transported by the MexXY efflux system, the absence of potentiation in this assay is not sufficient to draw conclusions regarding MexXY inhibition or overall efflux specificity.
MIC assays for potentiation of antimicrobial activity against P. aeruginosa were performed as described previously.

| Compound | Lowest concentration enhancing activity of monobactams, fluoroquinolones, sulfonamides and tetracyclines (P. aeruginosa [1]) | Blood Urea Nitrogen [2] | Creatinine [2] | half-life at 1 µM (Microsomal stability) | Concentrations at which impact on NCF hydrolysis is minimal (P. aeruginosa ATCC 27853 [3]) | IC50 at 24 h (in vitro) | fraction unbound ([4]; dog) | fraction unbound ([4]; human, across the four species tested, read-out: Plasma protein binding) | fraction unbound ([4]; human, read-out: Protein Binding) | fraction unbound ([4]; mouse) | fraction unbound ([4]; rat) | Minimal potentiation concentration (MPC) (P. aeruginosa ATCC 27853 [5]; elevated inoculum of EtBr assay (approximately 1000-fold greater)) | EtBr efflux blockade (fluorescence) (P. aeruginosa ATCC 27853 [5]; increasing TXA11114 concentration) | Cellular ATP level (P. aeruginosa ATCC 27853 [6]) | half-life (Plasma stability; dog) | half-life (Plasma stability; mouse) | half-life (Plasma stability; rat) | Lowest effective concentration for potentiation (P. aeruginosa [7]) |
| --- | --- | --- | --- | --- | --- | --- | --- | --- | --- | --- | --- | --- | --- | --- | --- | --- | --- | --- |
| NC[C@@H]1CN[C@H](CNC(=O)c2cc3ccc(-c4ccc(F)cc4)cc3[nH]2)C1 [TXA09155] | 6.25 µg/mL | – | – | – | – | – | – | – | – | – | – | – | – | – | – | – | – | – |
| NCC(F)C[C@@H](N)CNC(=O)c1cc2ccc(-c3ccc(F)cc3)cc2[nH]1 (stereo partly drawn) [TXA11114, N-((2R)-2,5-diamino-4-fluoropentyl)-6-(4-fluorophenyl)-1H-indole-2-carboxamide] | – | 15.3 mg/dL | 0.22 mg/dL | > 1 h | below 25 μg/mL | > 20 µM | 0.011 | 0.01 to 0.02 | 0.01 | 0.011 | 0.015 | 12.5 µg/mL | fluorescence intensity increased proportionally | did not result in ATP depletion | > 2 h | > 2 h | > 2 h | 6.25 µg/mL |
